Laboratory results published in patent US7001983B1, “Antipathogenic synthetic peptides and compositions comprising them” (priority 1997, dated 2006).
Values joined by “and” are separate entries in the source; they are usually repeats but may differ in a detail not shown here. Identical values can stand only once. Numbered stars: 1 amine (or outer) side, 2 acyl side, 3 side chain; on linkers, the order of the positions; unused ones are H or OH. Square brackets hold non-standard residues; d marks the D form. Peptide text beside a SMILES is read from it. Ethylenediamine = C(CN[*:2])N[*:1]

Columns and labels:
Escherichia coli D21 = assay type: cell-based; settings: 100% inhibition of growth after 18–20 h
[1] = system: Acinetobacter calcoaceticus Ac11; assay type: cell-based; settings: 100% inhibition of growth after 18–20 h
[2] = system: Salmonella typhimurium LT2; test: Antibacterial activity (MIC), growth inhibition in LB medium; assay type: cell-based; settings: 100% inhibition of growth after 18–20 h
Method: (§1) (viii) Antibacterial activity of the peptides. The antibacterial activity of the diastereomers was examined in sterile 96-well plates (Nunc F96 microtiter plates) in a final volume of 100 μL as follows: Aliquots (50 μl) of a suspension containing bacteria at a concentration of 10^6 Colony-Forming Units (CFU)/ml LB (Lauria broth) medium were added to 50 μL of water or 66% pooled normal human serum in PBS, containing the peptide in 2-fold serial dilutions. Growth inhibition was determined by measuring the absorbance at 492 nm with a Microplate autoreader E1309 (Bio-tek Instruments), following incubation for 18–20 h at 37° C. […] The bacteria used were: Escherichia coli D21, Pseudomonas aeruginosa ATCC 27853, Acinetobacter calcoaceticus Ac11, Salmonella typhimurium LT2, Bacillus megaterium Bm11, Micrococcus Iuteus ATCC 9341, Bacillus subtilis ATCC 6051.

[3] = system: Pseudomonas aeruginosa ATCC 27853; settings: 100% inhibition of growth after 18–20 h
Method: (viii) Antibacterial activity of the peptides.
Antibacterial activity of the mixtures was determined as described in Experimental procedures, section (xii).

Bacillus megaterium Bm11 = assay type: cell-based; settings: 100% inhibition of growth after 18–20 h
[4] = system: human red blood cells (hRBC); test: Hemolysis of human red blood cells; assay type: cell-based; settings: hRBC; for % hemolysis at 50 μM peptide: 30 min at 37° C.
Method in brief: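 Washed fresh erythrocytes at 5% v/v final in PBS pH 7.3 exposed to peptide 30 min at 37° C with agitation. Hemoglobin release read as supernatant absorbance at 540 nm after centrifugation, scaled between PBS (0%) and 1% Triton (100%).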

[5] = system: Micrococcus Iuteus ATCC 9341; test: Antibacterial activity (MIC), growth inhibition in LB medium; assay type: cell-based, Micrococcus luteus; settings: 100% inhibition of growth after 18–20 h
Method: as §1

[6] = system: Bacillus subtilis ATCC 6051; assay type: cell-based; settings: 100% inhibition of growth after 18–20 h

Structure (SMILES) | Minimal Inhibitory Concentration E. coli (D21) (Escherichia coli D21) [µM] | Minimal Inhibitory Concentration A. calcoaceticus (Ac11) [1] | Minimal Inhibitory Concentration S. typhimurium (LT2) [2] [µM] | Minimal Inhibitory Concentration P. aeruginosa (ATCC 27853) [3] [µM] | Minimal Inhibitory Concentration B. megaterium (Bm11) (Bacillus megaterium Bm11) [µM] | % hemolysis at 50 μM peptide [4] [%] | Minimal Inhibitory Concentration M. luteus (ATCC 9341) [5] [µM] | Minimal Inhibitory Concentration B. subtilis (ATCC 6051) [6] [µM] | hemolytic activity up to the maximum concentration tested ([4]; up to 50 μM)
CC[C@H](C)[C@H](NC(=O)[C@H](CCCCN)NC(=O)[C@H]1CCCN1C(=O)[C@@H](NC(=O)[C@H](CC(C)C)NC(=O)[C@H](C)NC(=O)[C@H](Cc1ccccc1)NC(=O)[C@H](Cc1ccccc1)NC(=O)CNC(=O)[C@H](CCCCN)NC(=O)[C@@H](N)CCCCN)[C@@H](C)CC)C(=O)N[C@H](C(=O)N[C@@H](CO)C(=O)N[C@@H](CO)C(=O)N1CCC[C@H]1C(=O)N[C@@H](CC(C)C)C(=O)N[C@@H](Cc1ccccc1)C(=O)N[C@@H](CCCCN)C(=O)N[C@H](C(=O)N[C@H](CC(C)C)C(=O)N[C@H](CC(C)C)C(=O)N[C@@H](CO)C(=O)N[C@@H](C)C(=O)N[C@H](C(=O)O)C(C)C)[C@@H](C)O)[C@@H](C)CC [Peptide 6, K^1K^2[D]P^7L^18L^19[1-22]-par] | 15 | 6 µM | 120 | 60 | 6 | 0 | – | – | –
CC[C@H](C)[C@H](NC(=O)[C@H](CCCCN)NC(=O)[C@H]1CCCN1C(=O)[C@@H](NC(=O)[C@H](CC(C)C)NC(=O)[C@H](C)NC(=O)[C@H](Cc1ccccc1)NC(=O)[C@H](Cc1ccccc1)NC(=O)CN)[C@@H](C)CC)C(=O)N[C@H](C(=O)N[C@@H](CO)C(=O)NCCN)[C@@H](C)CC [Peptide 7, [D]P^7-[1-11]-TApar] (H-GFFALI[dP]KIIS-Ethylenediamine; N-terminus assumed) | >120 | >120 µM | >120 | >120 | 30 | 0 | – | – | –
CC[C@H](C)[C@H](NC(=O)[C@H](CCCCN)NC(=O)[C@@H]1CCCN1C(=O)[C@@H](NC(=O)[C@H](CC(C)C)NC(=O)[C@H](C)NC(=O)[C@H](Cc1ccccc1)NC(=O)[C@H](Cc1ccccc1)NC(=O)CN)[C@@H](C)CC)C(=O)N[C@H](C(=O)N[C@@H](CO)C(=O)N[C@@H](CO)C(=O)N1CCC[C@H]1C(=O)N[C@@H](CC(C)C)C(=O)N[C@@H](Cc1ccccc1)C(=O)N[C@@H](CCCCN)C(=O)N[C@H](C(=O)N[C@@H](CC(C)C)C(=O)N[C@@H](CC(C)C)C(=O)N[C@@H](CO)C(=O)N[C@@H](C)C(=O)N[C@H](C(=O)NCC(=O)N[C@@H](CO)C(=O)N[C@@H](C)C(=O)N[C@@H](CC(C)C)C(=O)N[C@@H](CO)C(=O)N[C@@H](CO)C(=O)N[C@@H](CO)C(=O)NCC(=O)NCC(=O)N[C@@H](CCC(N)=O)C(=O)N[C@@H](CCC(=O)NCCN)C(=O)NCCN)C(C)C)[C@@H](C)O)[C@@H](C)CC [Peptide 8, TApar] | 3 | 3 µM | 15 | 8 | 0.8 | 100 | 5 | 1.5 | –
CC[C@H](C)[C@H](NC(=O)[C@H](CCCCN)NC(=O)[C@H]1CCCN1C(=O)[C@@H](NC(=O)[C@H](CC(C)C)NC(=O)[C@H](C)NC(=O)[C@H](Cc1ccccc1)NC(=O)[C@H](Cc1ccccc1)NC(=O)CN)[C@@H](C)CC)C(=O)N[C@H](C(=O)N[C@@H](CO)C(=O)N[C@@H](CO)C(=O)N1CCC[C@H]1C(=O)N[C@@H](CC(C)C)C(=O)N[C@@H](Cc1ccccc1)C(=O)N[C@@H](CCCCN)C(=O)N[C@H](C(=O)N[C@@H](CC(C)C)C(=O)N[C@@H](CC(C)C)C(=O)N[C@@H](CO)C(=O)N[C@@H](C)C(=O)N[C@H](C(=O)NCC(=O)N[C@@H](CO)C(=O)N[C@@H](C)C(=O)N[C@@H](CC(C)C)C(=O)N[C@@H](CO)C(=O)N[C@@H](CO)C(=O)N[C@@H](CO)C(=O)NCC(=O)NCC(=O)N[C@@H](CCC(N)=O)C(=O)N[C@@H](CCC(=O)NCCN)C(=O)NCCN)C(C)C)[C@@H](C)O)[C@@H](C)CC [Peptide 12, [D]P^7-TApar] | 10 | 5 µM | – | – | 1.2 | 49 | 5 | 2 | –
CC[C@H](C)[C@H](NC(=O)[C@H](CCCCN)NC(=O)[C@@H]1CCCN1C(=O)[C@@H](NC(=O)[C@H](CC(C)C)NC(=O)[C@H](C)NC(=O)[C@H](Cc1ccccc1)NC(=O)[C@H](Cc1ccccc1)NC(=O)CN)[C@@H](C)CC)C(=O)N[C@H](C(=O)N[C@@H](CO)C(=O)N[C@@H](CO)C(=O)N1CCC[C@H]1C(=O)N[C@@H](CC(C)C)C(=O)N[C@@H](Cc1ccccc1)C(=O)N[C@@H](CCCCN)C(=O)N[C@H](C(=O)N[C@H](CC(C)C)C(=O)N[C@H](CC(C)C)C(=O)N[C@@H](CO)C(=O)N[C@@H](C)C(=O)N[C@H](C(=O)NCC(=O)N[C@@H](CO)C(=O)N[C@@H](C)C(=O)N[C@@H](CC(C)C)C(=O)N[C@@H](CO)C(=O)N[C@@H](CO)C(=O)N[C@@H](CO)C(=O)NCC(=O)NCC(=O)N[C@@H](CCC(N)=O)C(=O)N[C@@H](CCC(=O)NCCN)C(=O)NCCN)C(C)C)[C@@H](C)O)[C@@H](C)CC [Peptide 14, [D]L^18L^19-TApar] | 3.5 | 1.5 µM and 2.5 µM | – | – | 0.6 | 100 | 2.5 | 1.5 | –
CC[C@@H](C)[C@@H](NC(=O)[C@H](CC(C)C)NC(=O)[C@H](C)NC(=O)[C@@H]1CCCN1C(=O)[C@H](CC(C)C)NC(=O)CNC(=O)[C@@H](NC(=O)[C@@H](NC(=O)[C@H](CC(C)C)NC(=O)[C@H](NC(=O)[C@H](CCCCN)NC(=O)[C@H](CC(C)C)NC(=O)[C@H](NC(=O)[C@H](C)NC(=O)CNC(=O)[C@@H](NC(=O)CN)[C@@H](C)CC)C(C)C)C(C)C)[C@@H](C)O)[C@@H](C)O)C(=O)N[C@@H](CO)C(=O)N[C@@H](Cc1c[nH]c2ccccc12)C(=O)N[C@H](C(=O)N[C@H](CCCCN)C(=O)N[C@@H](CCCNC(=N)N)C(=O)N[C@@H](CCCCN)C(=O)N[C@@H](CCCNC(=N)N)C(=O)N[C@@H](CCC(N)=O)C(=O)N[C@@H](CCC(N)=O)C(=O)O)[C@@H](C)CC [Peptide 19, [D]-V^5V^8I^17K^21-mel-COOH] | 18 | 18 µM | – | – | 1.2 | 0 | 50 | 8 | practically devoid of hemolytic activity
